According to ChEMBL document CHEMBL3244393, “6-aminopyrazolo[4,3-c]pyridin-4(5H)-one, a novel analogue of guanine” (J Med Chem, 1977):
Calls of active or inactive are those of the source.

Tests used:
Human alphaherpesvirus 1 = experiment: Antiviral activity against Herpes virus type 1 infected in human KB cells assessed as inhibition of virus-induced cytopathic effect; format: functional, organism-based
Human respirovirus 3 = experiment: Antiviral activity against Parainfluenza virus type 3 infected in human KB cells assessed as inhibition of virus-induced cytopathic effect; format: functional, organism-based
KB = experiment: Antiviral activity against Rhinovirus type 13 infected in human KB cells assessed as inhibition of virus-induced cytopathic effect; format: functional, cell-based; details: Human rhinovirus A13

Measured: Activity

Nc1cc2[nH]ncc2c(=O)[nH]1
inactive: Human alphaherpesvirus 1 | Human respirovirus 3 | KB
